Among the data in ChEMBL document CHEMBL1268906, “Discovery of a potent and selective Bcl-2 inhibitor using SAR by NMR” (Bioorg Med Chem Lett, 2010) are Ki, Selectivity ratio and Kd values, retold here.

pKd, pKi: −log10 of the molar value.

In test [1] the target is T1, Apoptosis regulator Bcl-2 (Homo sapiens, UniProt P10415). Kind of test: Inhibition of Bcl-2 by fluorescence polarization assay.
Test [2] is described as follows: Selectivity ratio of Kd for Bcl-XL to Kd for Bcl-2.
The target of test [3] is Bcl-2-like protein 1 (Homo sapiens, UniProt Q07817). Kind of test: Binding affinity to Bcl-XL by NMR titration assay.
Test [4] concerns the target T1, Apoptosis regulator Bcl-2. Kind of test: Binding affinity to Bcl-2 by NMR titration assay.
The target of test [5] is T1, Apoptosis regulator Bcl-2. Kind of test: Binding affinity to Bcl-2 by NMR titration assay in presence of 500 uM 1,1-bis(4-chlorophenyl)-3-(dimethylamino)propan-1-ol.

Sequence of Bcl-2-like protein 1 (Q07817 whole entry): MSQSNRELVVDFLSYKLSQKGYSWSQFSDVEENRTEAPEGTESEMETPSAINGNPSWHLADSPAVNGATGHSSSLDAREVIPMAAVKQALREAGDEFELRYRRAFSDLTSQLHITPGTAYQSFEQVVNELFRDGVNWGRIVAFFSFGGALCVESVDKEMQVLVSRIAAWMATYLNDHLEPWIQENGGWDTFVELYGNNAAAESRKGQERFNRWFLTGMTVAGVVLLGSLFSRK
T1 sequence (P10415 whole entry): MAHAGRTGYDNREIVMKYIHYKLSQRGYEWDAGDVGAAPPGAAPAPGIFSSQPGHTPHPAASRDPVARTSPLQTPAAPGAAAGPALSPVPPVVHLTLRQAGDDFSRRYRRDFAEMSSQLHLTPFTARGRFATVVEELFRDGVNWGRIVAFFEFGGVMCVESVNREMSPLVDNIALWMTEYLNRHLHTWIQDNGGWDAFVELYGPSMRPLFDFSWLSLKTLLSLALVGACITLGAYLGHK

A word on the pKi: it is −log10 of the Ki, conventionally taken in molar units. The low end stands for a large Ki, the high end for a small Ki. With `CN(C)CCCC(O)(c1ccccc1)c1cccc(OCc2ccc(-c3ccc(C(=O)O)cc3)cc2)c1` (stereo not drawn), the pKi in test [1] was 5.28. `CC(C)(C)c1ccc(C(O)(CCN2CCCC2)c2ccc(Cl)c(CCOc3ccc(-c4ccc(C(=O)O)cc4)cc3)c2)cc1` (stereo not drawn): the pKi in test [1] is 7.40. The Selectivity ratio in test [2] was determined as 1000.

On to `CN(C)CCCC(O)(c1ccccc1)c1ccc(OCCc2cccc(-c3ccc(C(=O)O)cc3)c2)cc1` (stereo not drawn), for which the pKi in test [1] is 5.10. Same read-out and setting: to `CN(C)CCCC(O)(c1ccccc1)c1cccc(OCc2cccc(-c3ccc(C(=O)O)cc3)c2)c1` (stereo not drawn) belongs 4.70. Broadly, the pKd is the Kd on a negative log10 scale, so that one unit is a factor of ten. Regarding `CN(C)CCCC(O)(c1ccc(Cl)cc1)c1ccc(Cl)cc1`, the pKd in test [3] is 3.35; in test [4], 4.70. Moreover, the Selectivity ratio in test [2] was 20. `CN1CCN(C(c2ccccc2)c2ccc(Cl)cc2)CC1` (stereo not drawn) [CHLORCYCLIZINE]: the negative-log Kd (pKd) is 3.15 in test [3] and 4.22 in test [4]. In the same order, the values of `CN(C)CCCC(O)(c1ccccc1)c1ccccc1` are 2.30 and 3.70. The compound `CC(O)(c1ccc(Cl)cc1)c1ccc(Cl)c(CCOc2ccc(-c3ccc(C(=O)O)cc3)cc2)c1` (stereo not drawn) had a pKi in test [1] of 6.34.

Regarding `CN(C)CCCC(O)(c1ccccc1)c1cccc(CCOc2ccc(-c3ccc(C(=O)O)cc3)cc2)c1` (stereo not drawn), the pKi in test [1] is 5.47.

Take `CCc1cccc(-c2ccc(C(=O)O)cc2)c1`: the pKd in test [5] is 4.70; in test [4], 4.00. For `CN(C)CCCC(O)(c1ccccc1)c1cccc(OCCOc2ccc(-c3ccc(C(=O)O)cc3)cc2)c1` (stereo not drawn), the pKi in test [1] was under 6.00. For the compound `CCc1ccc(-c2ccc(C(=O)O)cc2)cc1`, the pKd in test [5] was under 3.00; in test [4], 3.52. In the case of `CN(C)CCCC(O)(c1ccccc1)c1cccc(OCCc2ccc(-c3ccc(C(=O)O)cc3)cc2)c1` (stereo not drawn), the pKi in test [1] is 5.34. In test [4], `NC[C@](O)(c1ccccc1)c1ccc(F)cc1Cl` had a negative logarithm of the Kd (pKd) of 3.60. `CN(C)CCCC(O)(c1ccccc1)c1ccc(OCCOc2ccc(-c3ccc(C(=O)O)cc3)cc2)cc1` (stereo not drawn): the pKi in test [1] was under 6.00. Still for that read-out and setting: the result for `CC(C)(C)c1ccc(C(O)(CCN2CCOCC2)c2ccc(Cl)c(CCOc3ccc(-c4ccc(C(=O)O)cc4)cc3)c2)cc1` (stereo not drawn) reads 6.96; that for `CN(C)CCCC(O)(c1ccccc1)c1ccc(OCc2ccc(-c3ccc(C(=O)O)cc3)cc2)cc1` (stereo not drawn), 4.08; that for `CN(C)CCCC(O)(c1ccccc1)c1ccc(OCc2cccc(-c3ccc(C(=O)O)cc3)c2)cc1` (stereo not drawn), 5.24. On the same count and under the same terms, to `O=C(O)c1ccc(-c2ccc(OCCc3cc(C(O)(CCN4CCOCC4)c4ccc(Br)cc4)ccc3Cl)cc2)cc1` (stereo not drawn) belongs 6.70. The same measure, in the same setting: the result for `CN(C)CCCC(O)(c1ccccc1)c1ccc(OCCc2ccc(-c3ccc(C(=O)O)cc3)cc2)cc1` (stereo not drawn) reads 4.92; that for `O=C(O)c1ccc(-c2ccc(OCCc3cc(C(O)(CCN4CCOCC4)c4ccc(Cl)cc4)ccc3Cl)cc2)cc1` (stereo not drawn), 6.66. For `CN(C)CCC[C@@](O)(c1ccccc1)c1ccc(Cl)cc1`, the figures for the pKd in test [3] and in test [4] were 3.30 and 4.10, respectively. `CN(C)CCCC(O)(c1ccccc1)c1cccc(OCCc2cccc(-c3ccc(C(=O)O)cc3)c2)c1` (stereo not drawn) showed a pKi in test [1] of 5.30. As for `O=C(O)c1ccc(-c2ccc(F)cc2)cc1`, the pKd in test [5] is 3.37; in test [4], 3.40.
